{"source": "patent EP4198025A1", "about": "“BENZIMIDAZOLE DERIVATIVES FOR THE TREATMENT AND PROPHYLAXIS OF INFECTIOUS DISEASES” (Eberhard Karls Universität Tübingen Medizinische Fakultät, priority 2021, dated 2023)", "key": {"SurA [1]": {"target": "T1, SurA (Escherichia coli, UniProt P0ABZ6)", "T1 sequence (P0ABZ6 21-428)": "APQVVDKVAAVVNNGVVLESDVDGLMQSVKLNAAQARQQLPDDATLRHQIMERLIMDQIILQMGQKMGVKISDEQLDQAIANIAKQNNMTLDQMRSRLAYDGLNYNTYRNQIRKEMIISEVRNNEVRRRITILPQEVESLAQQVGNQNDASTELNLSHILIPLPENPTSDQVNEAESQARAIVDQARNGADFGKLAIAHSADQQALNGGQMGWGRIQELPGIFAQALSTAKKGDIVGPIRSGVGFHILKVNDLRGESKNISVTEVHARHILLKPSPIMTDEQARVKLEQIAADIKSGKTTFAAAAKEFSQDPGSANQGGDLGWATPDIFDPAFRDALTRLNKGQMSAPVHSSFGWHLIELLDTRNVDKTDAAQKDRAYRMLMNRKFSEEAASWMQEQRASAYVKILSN", "assay": "biochemical", "format": "biochemical, E. coli", "text": "The biological function of SurA is to bind and to keep outer membrane proteins that have reached the periplasm in an unfolded but folding-competent state. The inventors' assay is based on this interaction and uses firefly Luciferase (fLuc) as a non-native substrate. […] The loss of tertiary structure of fLuc leads to the exposure of binding sites for SurA. It is known that SurA binds selectively to a special group of substrates. These substrates have in common the specific patterns of hydrophobic amino acids that are highly enriched in the beta strands of integral outer membrane proteins. These motifs are present in OMPs of all Gram-negative bacteria and in fLuc as well. Upon mild heat treatment of fLuc and its subsequent partial unfolding, fLuc is accepted as a substrate by SurA. Of note, these intermediates served as reporter substrates to determine the activity of a cytoplasmic folding chaperone. […] This interaction remains stable upon temperature reduction. Next, the temperature of the assay is reduced to room temperature and luciferase activity is subsequently measured by addition of Luciferin and ATP. In conditions without SurA, fLuc will refold into its active conformation resulting in a luminescence signal.\nOf note, the SurA activity assay was performed similar at the ELF but with optimizations in regard of the higher throughput including the change of the plate format to 1536-wells. The SurA activity assay performed at the ELF contained the following steps (adapted from the QHL report provided by the ELF). First, SurA was thawed at RT and heat activated in a water bath. Next, the vial was taken out of the water bath and cooled down to RT for 30 min @ bench. […] Noteworthy, the SurA solution was kept on ice. 15 nL of 4 mM compound in DMSO were added to columns 9-48 with Echo acoustic nano-dispenser (ECHO). Additionally, 15 nL 100% DMSO were transferred to columns 1-8 with ECHO. […] The plate was spun for 60 seconds at 1000 rpm to ensure proper fluid localization at the bottom of the wells. […] Again, the plate was centrifuged for 60 seconds at 1000 rpm. […] To allow refolding of the luciferase, the plate was incubated 30 minutes at RT."}, "firefly Luciferase": {"target": "firefly Luciferase (Photinus pyralis, UniProt P08659)", "sequence (P08659 whole entry)": "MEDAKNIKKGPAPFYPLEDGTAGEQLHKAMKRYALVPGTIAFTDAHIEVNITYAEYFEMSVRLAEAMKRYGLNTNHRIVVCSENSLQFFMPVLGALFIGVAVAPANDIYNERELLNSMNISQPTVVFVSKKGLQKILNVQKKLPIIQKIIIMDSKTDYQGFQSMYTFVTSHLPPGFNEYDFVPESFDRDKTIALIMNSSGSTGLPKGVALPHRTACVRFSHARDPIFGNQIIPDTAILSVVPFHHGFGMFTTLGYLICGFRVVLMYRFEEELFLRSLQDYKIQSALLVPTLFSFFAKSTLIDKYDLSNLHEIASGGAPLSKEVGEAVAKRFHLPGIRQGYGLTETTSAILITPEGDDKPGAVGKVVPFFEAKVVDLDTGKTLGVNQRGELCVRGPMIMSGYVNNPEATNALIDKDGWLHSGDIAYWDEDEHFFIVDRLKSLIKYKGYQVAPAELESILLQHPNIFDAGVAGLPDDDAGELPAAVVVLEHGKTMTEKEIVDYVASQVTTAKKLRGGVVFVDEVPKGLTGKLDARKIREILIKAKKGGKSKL", "assay": "Luciferase interference deselection assay (D1) at the ELF", "format": "biochemical", "protocol": "The confirmed actives of ELF program ELFSC17_02 were tested as serial dilutions in the primary assay and deselection assay to generate dose response curves (DRCs). The serial dilutions consisted of 7 equidistant concentration steps (20 µM to 27.4 nM) and were tested in the primary and in the deselection assay in duplo (n=2) in 1536-well format. […] For the luciferase interference deselection assay in DRC-format, luciferase was left out in the Max effect wells, mimicking a 100% effect situation and resulting in a decreased signal. Compounds showing a signal decrease larger than 5 times the standard deviation (Z-score > 5) were identified as luciferase inducer. […] The ActivityBase application (IDBS) was used to analyze the data and to calculate quality parameters like Z-prime and Signal to Background ratio (S/B). For all compounds the % effect was calculated for all seven concentrations. ActivityBase was also used to calculate the pEC50 and Hill Slope. […] For compounds where no curve was fitted but reached >50% effect at 20 µM the Fit_Max was locked at 100% effect. For compounds where no curve was fitted but reached 100% effect at 20 µM and descended to <50% at 27 nM the Fit_Min was locked at 0%."}, "SurA [2]": {"target": "T1, SurA", "format": "binding, E. coli", "set-up": "key: An increase of the inflection points in the nanoDSF experiments is indicated by (+); a decrease by (-); no changes with (none); ambiguity with a question mark (?)", "conditions": "100 µM compound, 2 µM SurA, 40 mM HEPES pH 7.4", "procedure": "Nano Differential Scanning Fluorimetry (nanoDSF) measurements of the QHL (qualified hit list) compounds provided by the ELF were performed on a Tycho system (NanoTemper)."}, "SurA [3]": {"target": "T1, SurA", "assay": "biochemical", "format": "binding, E. coli", "procedure": "His-tagged SurA was labeled with the Monolith His-Tag Labeling Kit RED-tris-NTA (Nanotemper) according to the manufacturer's instructions.\nMicroscale thermophoresis measurements were performed in 40 mM HEPES pH 7.4, 0.05 % Tween-20 at 25°C with a Monolith NT.115 (NanoTemper) in standard capillaries."}, "SurA [4]": {"target": "T1, SurA", "format": "biochemical, E. coli", "set-up": "key to primary assay SurA: SurA inhibition = +; no SurA inhibiton = 0", "text": "The biological function of SurA is to bind and to keep outer membrane proteins that have reached the periplasm in an unfolded but folding-competent state. The inventors' assay is based on this interaction and uses firefly Luciferase (fLuc) as a non-native substrate. […] This is exploited in the assay (Figure 3). The loss of tertiary structure of fLuc leads to the exposure of binding sites for SurA. It is known that SurA binds selectively to a special group of substrates. These substrates have in common the specific patterns of hydrophobic amino acids that are highly enriched in the beta strands of integral outer membrane proteins. These motifs are present in OMPs of all Gram-negative bacteria and in fLuc as well. Upon mild heat treatment of fLuc and its subsequent partial unfolding, fLuc is accepted as a substrate by SurA. Of note, these intermediates served as reporter substrates to determine the activity of a cytoplasmic folding chaperone. […] This interaction remains stable upon temperature reduction. Next, the temperature of the assay is reduced to room temperature and luciferase activity is subsequently measured by addition of Luciferin and ATP. In conditions without SurA, fLuc will refold into its active conformation resulting in a luminescence signal. […] In the case of presence of a SurA inhibitor (Figure 3 B), fLuc will adopt an active conformation resulting in an increased luminescence signal compared to conditions without SurA inhibition.\nIn short, the Luciferase based SurA activity assay was performed in SurA Activity Assay Buffer (40 mM HEPES pH 7.4, 20 mM MgSO4, 0.5 g/l BSA). SurA aliquots were thawn at RT, activated by mild heat treatment and cooled down to RT for 10 min. SurA concentration was adjusted to 1.6 µM in Activity Assay Buffer (protein solution). […] Subsequently, the assay plate was cooled for 5 min at 4°C followed by 10 min incubation at RT prior to luminescence measurement. Luminescence was measured in a TECAN infinite M200 pro plate reader for each well individually after injection of 10 µl Solution A."}, "E. coli ATCC 25922": {"tested_on": "E. coli ATCC 25922", "assay": "Minimal inhibitory concentration assay / Vancomycin sensitizer MIC assay", "format": "cell-based", "conditions": "Escherichia coli, ATCC25922", "text": "The intended effect of a SurA inhibitor should be the induction of a disturbance of the outer membrane composition resulting in an increased susceptibility to antibiotic treatment. Of note, Vancomycin is typically not used to treat infections with Gram-negative bacteria, because it is excluded by the OM and not efficient at concentrations that could be achieved in patients. However, at appropriate dosing in vitro it can be used to detect outer membrane defects. For determining a potential sensitizing effect of Vancomycin treatment, the inventors first tested whether the compounds at hand were bactericidal per se. Therefore, the inventors performed a minimal inhibitory concentration (MIC) assay. To this end, 5 ml overnight cultures of E. coli BW25113 (Keio-Collection reference strain), E. coli JW2496-3 (Keio-Collection single gene knockout for bamB, which suffers from decreased outer membrane integrity) and E. coli ATCC 25922 (a reference strain recommended for antibiotic susceptibility testing) were grown in Mueller Hinton Broth, Cation adjusted (MHB-II). […] After o/n incubation, bacterial growth was quantified by measuring the optical density at 600 nm wavelength in a multiplate reader. […] Of note, the bactericidal effect of Vancomycin was assessed similarly for each test strain using Vancomycin concentrations ranging from 512 - 0.25 mg/ml. […]"}, "SurA [5]": {"target": "T1, SurA", "format": "binding, E. coli", "set-up": "key to nanoDSF pH 5 Ti#1 / nanoDSF pH 5 Ti#2 / nanoDSF pH 7.4 Ti#1 / nanoDSF pH 7.4 Ti#2: An increase of the inflection points in the nanoDSF experiments is indicated by (+); a decrease by (-); no changes with (none); ambiguity with a question mark (?)", "procedure": "To this end, 5 µl of a 2 mM compound solution in DMSO were mixed with 95 µl of a 20 µM SurA solution. Technical triplicate measurements were performed on a Prometheus system (NanoTemper)."}, "[6]": {"assay": "Solubility estimate based on turbidity (OD600nm)", "format": "physicochemical", "description": "The activity in the primary assay is distinguished into influence on SurA (SurA inhibition = +; no SurA inhibiton = 0) or interference with Luciferase per se (no influence on Luc activity = 0; enhances Luc activity = +; reduces Luc activity = -)."}, "HepG2 cells": {"tested_on": "HepG2 cells", "assay": "Cytotoxicity assay, LDH release", "format": "cell-based", "conditions": "500 µM compound", "procedure": "Cell cytotoxicity was evaluated monitoring the LDH release from HepG2 cells using the CytoTox 96® Non-Radio Cytotoxicity Assay (Promega) according to the manufacturer's instructions. […] After incubation, 25 µl were transferred into a fresh 96-well flat clear bottom plate and mixed with 25 µl CytoTox 96® Reagent. LDH release reactions were incubated 30 min at RT in the dark and 25 µl Stop Solution were added. LDH release was measured at 490 nm in a multiplate reader."}, "Luciferase": {"target": "Luciferase (Photinus pyralis, UniProt P08659)", "sequence (P08659 whole entry)": "as above", "assay": "Primary assay buffer control without SurA: interference with Luciferase per se", "format": "biochemical, firefly", "set-up": "key: no influence on Luc activity = 0; enhances Luc activity = +; reduces Luc activity = -", "procedure": "In short, the Luciferase based SurA activity assay was performed in SurA Activity Assay Buffer (40 mM HEPES pH 7.4, 20 mM MgSO4, 0.5 g/l BSA). SurA aliquots were thawn at RT, activated by mild heat treatment and cooled down to RT for 10 min. SurA concentration was adjusted to 1.6 µM in Activity Assay Buffer (protein solution). Solution A containing 10 mM ATP as well as 0.3 mM Luciferin (Promega Beetle Luciferin, Potassium Salt) in water was prepared. Luciferase working solution was prepared by diluting 1 ml Luciferase working stock (100 nM) with 9 ml assay buffer. 33 µl of the protein solution were added to every 2nd row of a well of a 384-well PS, white, flat bottom plate. […] Subsequently, 2 µl of compound in DMSO were added in quadruplicates (4 wells each of protein solution and buffer controls). These compound solutions could contain either various compounds or different dilutions of the same compound allowing screening inhibitor activity in a dose dependent manner. After compound addition, plates were incubated 15 min at RT. After this incubation, 5 µl of Luciferase working solution were added to each well. […] Subsequently, the assay plate was cooled for 5 min at 4°C followed by 10 min incubation at RT prior to luminescence measurement. Luminescence was measured in a TECAN infinite M200 pro plate reader for each well individually after injection of 10 µl Solution A. […]"}}, "note": "Where two headings read alike, the source gives them in different places.", "data": [{"smiles": "CN(C)c1ccc(-c2nc3cc(NC(=O)Cn4cc5ccccc5n4)ccc3[nH]2)cc1", "note": "[QHL-24, N-(2-(4-(dimethylamino)phenyl)-1H-benzo[d]imidazol-5-yl)-2-(2H-indazol-2-yl)acetamide]", "values": [{"measurement": "IC50", "setting": "SurA [1]", "value": 3.55, "unit": "µM"}, {"measurement": "Primary assay (P1) % Effect", "setting": "SurA [1]; ELF library screen, 1536-well", "value": 151, "unit": "%"}, {"measurement": "Primary assay (P1) Z-score", "setting": "SurA [1]; ELF library screen, 1536-well", "value": 191.97}, {"measurement": "LipE", "setting": "SurA [1]; listed under calculated properties", "value": 1.39}, {"measurement": "IC50", "setting": "firefly Luciferase", "value": 38, "unit": "µM"}, {"measurement": "Deselection (D1) plC50", "setting": "firefly Luciferase; Luciferase interference, 7 concentration steps 20 µM to 27.4 nM", "value": 4.42}, {"measurement": "Re-evaluation (Tuebingen) nanoDSF (Tycho) Ti#1", "setting": "SurA [2]", "value": "none"}, {"measurement": "Re-evaluation (Tuebingen) nanoDSF (Tycho) Ti#2", "setting": "SurA [2]", "value": "+"}, {"measurement": "Kd", "setting": "SurA [3]", "value": "0.02 to 0.03", "unit": "mM"}, {"measurement": "Re-evaluation (Tuebingen) MST score", "setting": "SurA [3]; re-evaluation of QHL compound remainders", "value": "inconclusive"}, {"measurement": "Kd", "setting": "SurA [3]; read-out: MST (Kd in mM)", "value": "0.02 to 0.03", "unit": "mM"}, {"measurement": "SurA inhibition in the Luciferase-based SurA activity assay (in words)", "setting": "SurA [4]", "value": "very high SurA inhibition"}, {"measurement": "Primary Assay ICmax", "setting": "SurA [4]; concentration of maximum SurA inhibition, dose response up to 250 µM, resynthesized/repurchased compounds", "value": "5 to 10", "unit": "µM"}, {"measurement": "primary assay SurA", "setting": "SurA [4]; influence on SurA", "value": "+"}, {"measurement": "MIC", "setting": "E. coli ATCC 25922", "value": "< 256", "unit": "µg/mL"}, {"measurement": "thermal stability of SurA as detected by nanoDSF (in words)", "setting": "SurA [5]", "value": "affected the thermal stability of SurA"}, {"measurement": "nanoDSF pH 7.4 Ti#1", "setting": "SurA [5]; 40 mM HEPES pH 7.4, 150 NaCl", "value": "none"}, {"measurement": "nanoDSF pH 7.4 Ti#2", "setting": "SurA [5]; 40 mM HEPES pH 7.4, 150 NaCl", "value": "-"}, {"measurement": "nanoDSF pH 5 Ti#1", "setting": "SurA [5]; 50 mM HAc pH 5", "value": "none"}, {"measurement": "nanoDSF pH 5 Ti#2", "setting": "SurA [5]; 50 mM HAc pH 5", "value": "+"}, {"measurement": "solubility (in words)", "setting": "[6]", "value": "poor solubility"}, {"measurement": "CytoTox (observation in the well)", "setting": "HepG2 cells", "value": "precipitate"}, {"measurement": "CytoTox", "setting": "HepG2 cells; LDH release, 1 h at 37°C", "value": 7.87, "unit": "%"}, {"measurement": "primary assay Luciferase", "setting": "Luciferase", "value": "-"}]}]}
